Holding throughout (type): cell-based
In one experiment the target is T1, Smo D473H mutant (Homo sapiens, UniProt Q99835, D473H).
T1 construct: expressed in transfected cells; host or cells: C3H10T1/2 cells (ATCC CCL-226), transient transfection with pLPCX-SMO-D473H
As to the kind of experiment: Reporter assay of C3H10T1/2-Gli-Luc cells transfected with Smo D473H mutant, without SAG. As to conditions: C3H10T1/2 cells transfected with pLPCX-SMO-D473H, no SAG, 48 hr; read-out: Inhibition of C3H10T1/2-Gli-Luc-Smo-D473H [IC50. How it is done:
(§1) A transient transfection system with a Smo wild type or a Smo D473H mutant was also used for compound screening. For the SMO inhibition experiments, cells were transfected with an additional 500 ng/well of wild-type or D473H-mutant type SMO construct (pLPCX-SMO or pLPCX-SMO-D473H). After 24 h, transfected cells were collected by trypsin treatment and re-plated in 96-well plates in an RPMI medium containing 0.5% FBS with a density of 1.5×10^4 cells/well. Compounds were dissolved in DMSO with serial dilutions and were then added to the assay plate. The assay plates were incubated at 37° C. for 48 hr.
(§2) Firefly luciferase and Renilla luciferase activity was determined using the Dual-Glo Luciferase reporter assay system (Promega) with a Victor3 plate reader (PerkinElmer Life Sciences). Firefly luciferase readings were normalized to Renilla luciferase to correct for transfection efficiency. Luminance reading for the C3H10T1/2-Gli-Luc assay was normalized based on DMSO control with SAG stimulation (100% pathway activity) and without SAG stimulation (0% pathway activity). IC50 values, defined as the inflection point of the logistic curve, were determined by nonlinear regression using the Prism 5 software (GraphPad).
(§3) The reporter assay of C3H10T1/2-Gli-Luc cells transfected with a wild-type, D473H mutant Smo mutant was carried out with the same protocol but without SAG stimulation. Luminance reading for the SMO inhibition experiments assay was normalized based on DMSO control (100% of the pathway activity) and a known Smo antagonist (ALLO-2 at 10 μM, 0% of the pathway activity).
For orientation: A reporter such as luciferase makes a cellular process visible.

The next experiment concerns the target T2, Smo wild type (Homo sapiens, UniProt Q99835).
T2 construct: expressed in transfected cells; host or cells: C3H10T1/2 cells (ATCC CCL-226), transient transfection with pLPCX-SMO
As to the kind of experiment: Reporter assay of C3H10T1/2-Gli-Luc cells transfected with wild-type Smo, without SAG. As to conditions: C3H10T1/2 cells transfected with pLPCX-SMO, no SAG, 48 hr; read-out: Inhibition of C3H10T1/2-Gli-Luc-Smo-WT [IC50. How it is done:
as §1, §2, §3

In experiment [1] the test system is hedgehog pathway (pGL3-7xGli-Luciferase reporter in C3H10T1/2 cells). As to the kind of experiment: Transient transfection of C3H10T1/2 and Gli-Luc reporter assay with SAG stimulation. The settings on record: Mus musculus, C3H 10T1/2, SAG 20 nM, 48 hr, read-out: Inhibition of Gli-Luc expression [IC50. As to the method: A cell-based screen for inhibitors of the hedgehog pathway was performed using a transient transfection system in C3H10T1/2 cells with pGL3-7xGli-Luciferase reporter plasmids C3H10T1/2 cells (ATCC, cat.#CCL-226) were seeded into 6-well plates at 8×10^4 cells/well in a BME medium containing 10% heat-inactivated FBS. Cells were transfected the next morning with 500 ng/well pGL3-7xGli-Luciferase reporter plasmids and 100 ng/well pRL-TK Renilla luciferase reporter plasmids (Promega)using GeneJuice transfection reagent (Novagene). After 24 h, transfected cells were collected by trypsin treatment and re-plated in 96-well plates in an RPMI medium containing 0.5% FBS with a density of 1.5×10^4 cells/well. Compounds were dissolved in DMSO with serial dilutions and were then added to the assay plate. SAG (Hh-Ag 1.3) (Santa Cruz) was added to the assay plated for a final concentration 20 nM. The assay plates were incubated at 37° C. for 48 hr.
as §2

Structures are written as SMILES.

T1 sequence (Q99835 28-787 D473H): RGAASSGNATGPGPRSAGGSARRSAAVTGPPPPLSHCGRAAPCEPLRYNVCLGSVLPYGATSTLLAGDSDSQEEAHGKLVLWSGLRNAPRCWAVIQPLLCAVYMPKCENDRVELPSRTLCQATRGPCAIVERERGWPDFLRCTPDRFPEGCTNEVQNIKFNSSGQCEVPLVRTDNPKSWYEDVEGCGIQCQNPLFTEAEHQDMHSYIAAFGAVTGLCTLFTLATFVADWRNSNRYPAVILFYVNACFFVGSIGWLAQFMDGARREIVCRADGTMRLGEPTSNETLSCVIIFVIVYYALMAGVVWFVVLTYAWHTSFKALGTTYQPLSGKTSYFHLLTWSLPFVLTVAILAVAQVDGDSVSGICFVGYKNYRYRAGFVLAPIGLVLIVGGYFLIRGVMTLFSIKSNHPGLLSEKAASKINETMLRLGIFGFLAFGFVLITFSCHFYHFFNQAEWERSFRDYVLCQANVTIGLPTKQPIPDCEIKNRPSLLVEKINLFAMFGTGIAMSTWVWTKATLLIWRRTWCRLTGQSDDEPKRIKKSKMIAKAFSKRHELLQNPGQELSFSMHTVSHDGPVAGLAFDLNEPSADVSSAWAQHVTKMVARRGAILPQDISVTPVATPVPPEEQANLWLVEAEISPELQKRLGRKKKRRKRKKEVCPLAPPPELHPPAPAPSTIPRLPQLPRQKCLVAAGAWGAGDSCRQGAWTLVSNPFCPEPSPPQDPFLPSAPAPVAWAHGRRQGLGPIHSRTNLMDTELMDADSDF
T2 sequence (Q99835 28-787): as the sequence (Q99835 28-787 D473H) above, with H446D counted along it

Take `CSc1cnc(Nc2ccc(C(=O)Nc3c(C)cccc3C)cc2)nc1-c1ccc(F)cc1` [Compound 29, N-(2,6-Dimethyl-phenyl)-4-[4-(4-fluoro-phenyl)-5-methylsulfanyl-pyrimidin-2-ylamino]-benzamide]: the IC50 (at Smo D473H mutant; at Smo wild type; in experiment [1]) was 0.1 to 1 µM in each case.

With `CCOc1cnc(Nc2ccc(C(=O)Nc3cc(CN(CC)CC)ccc3C)cc2)nc1-c1ccc(F)cc1` [Compound 77, N-(5-Diethylaminomethyl-2-methyl-phenyl)-4-[5-ethoxy-4-(4-fluoro-phenyl)-pyrimidin-2-ylamino]-benzamide], the IC50 was 0.1 to 1 µM at Smo D473H mutant, less than 0.1 µM at Smo wild type and less than 0.1 µM in experiment [1].

For `CCN(CC)Cc1ccc(C)c(NC(=O)c2ccc(Nc3ncc(OC)c(-c4ccc(OC(F)(F)F)cc4)n3)c(F)c2)c1` [Compound 61, N-(5-Diethylaminomethyl-2-methyl-phenyl)-3-fluoro-4-[5-methoxy-4-(4-trifluoromethoxy-phenyl)-pyrimidin-2-ylamino]-benzamide], the IC50 on Smo D473H mutant was 0.1 to 1 µM; at Smo wild type, less than 0.1 µM; in experiment [1], less than 0.1 µM.

On to `CSc1cnc(Nc2ccc(C(=O)Nc3cc(CN(C)C)ccc3C)cc2)nc1-c1ccc(OC(F)(F)F)cc1` [Compound 54, N-(5-Dimethylaminomethyl-2-methyl-phenyl)-4-[5-methylsulfanyl-4-(4-trifluoromethoxy-phenyl)-pyrimidin-2-ylamino]-benzamide], for which the IC50 at Smo D473H mutant is 0.1 to 1 µM; on Smo wild type, 0.1 to 1 µM; in experiment [1] it was less than 0.1 µM.

Turning to `CSc1cnc(Nc2ccc(C(=O)Nc3cc(CN4CCOCC4)ccc3C)cc2)nc1-c1ccc(OC(F)(F)F)cc1` [Compound 24, N-(2-Methyl-5-morpholin-4-ylmethyl-phenyl)-4-[5-methylsulfanyl-4-(4-trifluoromethoxy-phenyl)-pyrimidin-2-ylamino]-benzamide], the IC50 (on Smo D473H mutant; at Smo wild type; in experiment [1]) was less than 0.1 µM throughout.

Take `CSc1cnc(Nc2ccc(C(=O)Nc3cc(CN4CCNCC4)ccc3C)cc2F)nc1-c1ccc(F)cc1` [Compound 78, 3-Fluoro-4-[4-(4-fluoro-phenyl)-5-methylsulfanyl-pyrimidin-2-ylamino]-N-(2-methyl-5-piperazin-1-ylmethyl-phenyl)-benzamide]: the IC50 (at Smo D473H mutant; on Smo wild type; in experiment [1]) was 0.1 to 1 µM throughout.

In the case of `COc1cccc(C)c1NC(=O)c1ccc(Nc2ncc(SC)c(-c3cccnc3F)n2)cc1` [Compound 14, 4-[4-(2-Fluoro-pyridin-3-yl)-5-methylsulfanyl-pyrimidin-2-ylamino]-N-(2-methoxy-6-methyl-phenyl)-benzamide], the IC50 on Smo D473H mutant was 0.1 to 1 µM; on Smo wild type, 0.1 to 1 µM; in experiment [1] it was less than 0.1 µM.

In the case of `CSc1cnc(Nc2ccc(C(=O)Nc3cc(CN4CCOCC4)ccc3C)cc2)nc1-c1ccncc1` [Compound 26, N-(2-Methyl-5-morpholin-4-ylmethyl-phenyl)-4-(5-methylsulfanyl-4-pyridin-4-yl-pyrimidin-2-ylamino)-benzamide], the IC50 at Smo D473H mutant was 0.1 to 1 µM; at Smo wild type, less than 0.1 µM; in experiment [1], less than 0.1 µM.

With `CSc1cnc(Nc2ccc(C(=O)Nc3cc(CN4CCN(C)CC4)ccc3C)cc2)cc1-c1ccc(F)cc1` [Compound 89, 4-((4-(4-fluorophenyl)-5-(methylthio)pyridin-2-yl)amino)-N-(2-methyl-5-((4-methylpiperazin-1-yl)methyl)phenyl)benzamide], the figures for the IC50 (at Smo D473H mutant; at Smo wild type; in experiment [1]) were 0.1 to 1 µM, less than 0.1 µM and less than 0.1 µM, respectively.

For the compound `CSc1cnc(Nc2ccc(C(=O)Nc3cccc(CN4CCOCC4)c3)cc2)nc1-c1ccc(OC(F)(F)F)cc1` [Compound 65, 4-[5-Methylsulfanyl-4-(4-trifluoromethoxy-phenyl)-pyrimidin-2-ylamino]-N-(3-morpholin-4-ylmethyl-phenyl)-benzamide], the results for the IC50 (at Smo D473H mutant; at Smo wild type; in experiment [1]) were 0.1 to 1 µM, less than 0.1 µM and less than 0.1 µM, respectively.

As to `COc1cccc(C)c1NC(=O)c1ccc(Nc2ncc(SC)c(-c3cccnc3F)n2)c(F)c1` [Compound 15, 3-Fluoro-4-[4-(2-fluoro-pyridin-3-yl)-5-methylsulfanyl-pyrimidin-2-ylamino]-N-(2-methoxy-6-methyl-phenyl)-benzamide], the values for the IC50 (at Smo D473H mutant; on Smo wild type; in experiment [1]) were 0.1 to 1 µM, less than 0.1 µM and less than 0.1 µM, respectively.

With `CSc1cnc(Nc2ccc(C(=O)Nc3cccc(CN4CCOCC4)c3)cc2F)nc1-c1ccc(OC(F)(F)F)cc1` [Compound 44, 3-Fluoro-4-[5-methylsulfanyl-4-(4-trifluoromethoxy-phenyl)-pyrimidin-2-ylamino]-N-(3-morpholin-4-ylmethyl-phenyl)-benzamide], the IC50 (on Smo D473H mutant; at Smo wild type; in experiment [1]) was less than 0.1 µM each time.

Take `COc1cccc(C)c1NC(=O)c1ccc(Nc2ncc(SC)c(-c3ccc(F)nc3)n2)c(F)c1` [Compound 17, 3-Fluoro-4-[4-(6-fluoro-pyridin-3-yl)-5-methylsulfanyl-pyrimidin-2-ylamino]-N-(2-methoxy-6-methyl-phenyl)-benzamide]: the IC50 (at Smo D473H mutant; at Smo wild type; in experiment [1]) was 0.1 to 1 µM throughout.

`CCN(CC)Cc1ccc(C)c(NC(=O)c2ccc(Nc3cc(-c4ccc(OC(F)(F)F)cc4)c(SC)cn3)cc2)c1` [Compound 87, N-(5-((diethylamino)methyl)-2-methylphenyl)-4-((5-(methylthio)-4-(4-(trifluoromethoxy)phenyl)pyridin-2-yl)amino)benzamide]: the IC50 (at Smo D473H mutant; on Smo wild type; in experiment [1]) was less than 0.1 µM each time.

Regarding `Cc1ccc(CN2CCOCC2)cc1NC(=O)c1ccc(Nc2ncc([S+](C)[O-])c(-c3ccc(OC(F)(F)F)cc3)n2)cc1` (stereo not drawn) [Compound 85, 4-[5-Methanesulfinyl-4-(4-trifluoromethoxy-phenyl)-pyrimidin-2-ylamino]-N-(2-methyl-5-morpholin-4-ylmethyl-phenyl)-benzamide], the IC50 (at Smo D473H mutant; on Smo wild type; in experiment [1]) was less than 0.1 µM in each case.

For `CSc1cnc(Nc2ccc(C(=O)Nc3cc(CN4CCN(C)CC4)ccc3C)cc2)cc1-c1ccc(OC(F)(F)F)cc1` [Compound 82, N-[2-Methyl-5-(4-methyl-piperazin-1-ylmethyl)-phenyl]-4-[5-methylsulfanyl-4-(4-trifluoromethoxy-phenyl)-pyridin-2-ylamino]-benzamide], the IC50 (on Smo D473H mutant; at Smo wild type; in experiment [1]) was less than 0.1 µM throughout.

With `CSc1cnc(Nc2ccc(C(=O)Nc3cc(CN4CCN(C)CC4)ccc3C)cc2)nc1-c1ccc(C#N)cc1` [Compound 35, 4-[4-(4-Cyano-phenyl)-5-methylsulfanyl-pyrimidin-2-ylamino]-N-[2-methyl-5-(4-methyl-piperazin-1-ylmethyl)-phenyl]-benzamide], the IC50 on Smo D473H mutant was 0.1 to 1 µM; at Smo wild type it was less than 0.1 µM; in experiment [1] it was less than 0.1 µM.

Regarding `CSc1cnc(Nc2ccc(C(=O)Nc3cc(CN4CCN(C)CC4)ccc3C)cc2F)nc1-c1cnn(C)c1` [Compound 46, 3-Fluoro-N-[2-methyl-5-(4-methyl-piperazin-1-ylmethyl)-phenyl]-4-[4-(1-methyl-1H-pyrazol-4-yl)-5-methylsulfanyl-pyrimidin-2-ylamino]-benzamide], the figures for the IC50 (at Smo D473H mutant; on Smo wild type; in experiment [1]) were 0.1 to 1 µM, less than 0.1 µM and less than 0.1 µM, respectively.

For the compound `CSc1cnc(Nc2ccc(C(=O)Nc3cc(CN4CCOCC4)ccc3C)cn2)nc1-c1ccc(OC(F)(F)F)cc1` [Compound 63, N-(2-Methyl-5-morpholin-4-ylmethyl-phenyl)-6-[5-methylsulfanyl-4-(4-trifluoromethoxy-phenyl)-pyrimidin-2-ylamino]-nicotinamide], the IC50 (on Smo D473H mutant; on Smo wild type; in experiment [1]) was less than 0.1 µM in each case.

The values are drawn from US10793542B2, “Hetroarylamine compounds for modulating the hedgehog pathway and preparing method and uses thereof” (DEVELOPMENT CENTER FOR BIOTECHNOLOGY, priority 2016, dated 2020).
